# Patent US7329653B2, “Cyclohexylphenyl vasopressin agonists” (Wyeth, priority 2001, dated 2008)
# What was measured:
# vasopressin V2 receptors = biological target: T1, vasopressin V2 receptors (Rattus norvegicus, UniProt Q00788); experiment: Vasopressin V2 agonist effects in normal conscious water-loaded rats; type: in vivo; settings: vs control; oral dose of 10 mg/Kg; urine collected for four hours; Sprague-Dawley (CD) rats
# T1 construct: Male or female normotensive Sprague-Dawley rats; tissue Charles River Laboratories, Inc; host or cells: whole animal (Sprague-Dawley rat; kidney collecting ducts per the background)
# Description: Vasopressin V2 Agonist Effects of Test Compounds in Normal Conscious Water-Loaded Rats
# Male or female normotensive Sprague-Dawley rats (Charles River Laboratories, Inc., Kingston, N.Y.) of 350-500 g body weight were supplied with standard rodent diet (Purina Rodent Lab. Chow 5001) and water ad libitum. On the day of test, rats were placed individually into metabolic cages equipped with devices to separate the feces from the urine and containers for collection of urine. A test compound or a reference agent was given at an oral dose of 10 mg/Kg in a volume of 10 mL/Kg. The vehicle used was 2.5% preboiled corn starch in 20% dimethylsulfoxide (DMSO). Thirty minutes after dosing the test compound, rats were gavaged with water at 30 mL/Kg into the stomach using a feeding needle. During the test, rats were not provided with water or food. Urine was collected for four hours after dosing of the test compound. At the end of four hours, urine volume was measured. Urinary osmolality was determined using a Fiske One-Ten Osmometer (Fiske Associates, Norwood, Mass., 02062) or an Advanced CRYOMATIC Osmometer, Model 3C2 (Advanced Instruments, Norwood, Mass.). Determinations of Na^+, K^+ and Cl^− ion were carried out using ion specific electrodes in a Beckman SYNCHRON EL-ISE Electrolyte System analyzer. The urinary osmolality should increase proportionally. In the screening test, two rats were used for each compound. If the difference in the urine volume of the two rats was greater than 50%, a third rat was used.
# T1 sequence (Q00788 whole entry): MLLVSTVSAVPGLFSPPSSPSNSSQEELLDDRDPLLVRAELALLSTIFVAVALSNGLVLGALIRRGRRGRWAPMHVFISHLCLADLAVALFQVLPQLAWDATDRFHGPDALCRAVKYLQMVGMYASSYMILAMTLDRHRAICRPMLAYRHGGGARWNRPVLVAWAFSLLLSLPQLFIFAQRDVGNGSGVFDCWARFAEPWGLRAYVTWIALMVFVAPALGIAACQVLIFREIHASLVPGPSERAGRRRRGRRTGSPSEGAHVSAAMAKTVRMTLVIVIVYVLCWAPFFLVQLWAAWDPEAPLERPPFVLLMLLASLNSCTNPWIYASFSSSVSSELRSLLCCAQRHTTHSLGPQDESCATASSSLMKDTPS
Urinary Osmolality (% increase) (vasopressin V2 receptors),Urine Volume (% decrease) (vasopressin V2 receptors),melting point,SMILES
232 % increase,61 % decrease,127 to 129 °C,"O=C(c1ccc(C2CCCCC2)cc1)N1Cc2cccn2Cc2ccccc21 [Example 1, 10-(4-Cyclohexyl-benzoyl)-10,11-dihydro-5H-pyrrolo[2,1-c][1,4]benzodiazepine]"
51 % increase,48 % decrease,230 to 233 °C,"O=C(c1ccc(C2CCCCC2)cc1)N1Cc2cccnc2Nc2ccccc21 [Example 2, (4-Cyclohexyl-phenyl)-(5,11-dihydro-pyrido[2,3-b][1,5]benzodiazepin-6-yl)-methanone]"
129 % increase,51 % decrease,–,"CN1c2ccccc2N(C(=O)c2ccc(C3CCCCC3)cc2)Cc2cccnc21 [Example 3, (4-Cyclohexyl-phenyl)-(5,11-dihydro-11-methyl-5H-pyrido[2,3-b][1,5]benzodiazepin-6-yl)-methanone]"
132 % increase,64 % decrease,–,"CCN1c2ccccc2N(C(=O)c2ccc(C3CCCCC3)cc2)Cc2cccnc21 [Example 4, (4-Cyclohexyl-phenyl)-(5,11-dihydro-11-ethyl-5H-pyrido[2,3-b][1,5]benzodiazepin-6-yl)-methanone]"
–,–,175 to 176 °C,"O=C(c1ccc(C2CCCCC2)cc1)N1Cc2ccccc2Nc2ccccc21 [Example 5, (4-Cyclohexyl-phenyl)-(5,11-dihydro-10H-dibenzo[b,e][1,4]diazepin-10-yl)methanone]"
–,–,111 to 112 °C,"CN1c2ccccc2CN(C(=O)c2ccc(C3CCCCC3)cc2)c2ccccc21 [Example 6, (4-Cyclohexyl-phenyl)-(5,11-dihydro-5-methyl-10H-dibenzo[b,e][1,4]diazepin-10-yl)-methanone]"
–,–,150 to 152 °C,"O=C(c1ccc(C2CCCCC2)cc1)N1Cc2cccn2Cc2ncccc21 [Example 7, (4-Cyclohexyl-phenyl)-(4H,10H-3a,5,9-triaza-benzo[f]azulen-9-yl)-methanone]"
–,–,145 to 148 °C,"O=C(c1ccc(C2CCCCC2)cc1)N1CCCCc2sccc21 [Example 8, (4-Cyclohexyl-phenyl)-(5,6,7,8-tetrahydro-thieno[3,2-b]azepin-4-yl)-methanone]"
